# Experimental data taken from US7678826B2, “Organic compounds for the treatment of inflammatory or allergic conditions” (priority 2005, dated 2010).
# Tests used:
# CRTh2 receptor [1] = target: T1, CRTh2 receptor (Homo sapiens, UniProt Q9Y5Y4); assay: Filtration binding assay: competition with [3H]-PGD2 on CHO.K1-CRTh2 membranes (results text calls it SPA binding assay); conditions: [3H]-PGD2 2.5 nM, Cheng-Prussoff
# T1 construct: expressed in transfected cells; host or cells: CHO.K1 (Chinese Hamster Ovary) cells, CHO.K1-CRTh2
# T1 sequence (Q9Y5Y4 1-395): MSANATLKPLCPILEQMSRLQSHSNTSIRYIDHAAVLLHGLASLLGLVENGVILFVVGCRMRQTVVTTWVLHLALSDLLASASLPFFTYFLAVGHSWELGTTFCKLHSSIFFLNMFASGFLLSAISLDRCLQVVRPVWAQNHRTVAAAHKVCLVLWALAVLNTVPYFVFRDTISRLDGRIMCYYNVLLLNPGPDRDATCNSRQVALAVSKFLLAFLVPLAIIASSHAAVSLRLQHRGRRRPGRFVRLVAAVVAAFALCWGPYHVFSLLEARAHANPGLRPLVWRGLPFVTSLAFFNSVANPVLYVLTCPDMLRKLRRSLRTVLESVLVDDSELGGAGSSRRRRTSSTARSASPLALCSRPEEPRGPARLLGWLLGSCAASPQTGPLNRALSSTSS
# Protocol: The binding of CRTh2 antagonists is determined using membranes prepared from human CRTh2-expressing Chinese Hamster Ovary cells (CHO.K1-CRTh2). To produce cell membranes CHO.K1-CRTh2 cells cultured in roller bottles are harvested using cell dissociation buffer (Invitrogen). The cells are pelleted by centrifugation (167 g, 5 minutes). The cell pellet is incubated in hypotonic buffer (15 mM Tris-OH, 2 mM MgCl2, 0.3 mM EDTA, 1 mM EGTA, 1× Complete™ tablet) at 4° C. for 30 minutes. At 4° C. cells are homogenized using a Polytron® (IKA Ultra Turrax T25) for 5 bursts of 1 second. The homogenate is centrifuged (Beckman Optima TM TL Ultracentrifuge, 48,000 g, 30 minutes at 4° C.). The supernatant is discarded and the membrane pellet re-suspended in homogenisation buffer (75 mM Tris-OH, 12.5 mM MgCl2, 0.3 mM EDTA, 1 mM EGTA, 250 mM Sucrose, 1× Complete™ tablet. Membrane preparations are aliquoted and stored at […]. The protein content is estimated using Bradford Protein Assay Dye (Bio Rad).
# The binding of [^3H]-PGD2 (157 Ci/mmol) to CHO.K1-CRTh2 membranes is determined in the absence (total binding) and presence (non-specific binding) of unlabelled PGD2 (1 μM). Subtraction of the cpm (counts per minute) of [^3H]-PGD2 binding in presence of excess unlabelled PGD2 from that observed in the absence of excess unlabelled PGD2 is defined as specific binding. Active CRTh2 antagonists are able to compete with [^3H]-PGD2 for binding to the CRTh2 receptor and are identified in a decrease in the number of cpm bound.
# The assay is performed in Greiner U-bottomed 96 well-plates, in a final volume of 100 μL/well. CHO.K1-CRTh2 membranes were diluted in assay buffer (10 mM HEPES-KOH (pH 7.4), 1 mM EDTA and 10 mM MnCl2) and 10 μμg are added to each well. [^3H]-PGD2 is diluted in assay buffer and added to each well at a final concentration of 2.5 nM. To determine non-specific binding, [3H]-PGD2 binding to the CRTh2 receptor is competed with using unlabelled PGD2 at a final well concentration of 1 μM. The experiment is done in triplicate, with reagents added to the wells as follows: • 25 μL assay buffer for total binding or • 25 μL PGD2 to determine non-specific binding • 25 μL [^3H]PGD2 • […] membranes • 25 μL test compound in DMSO/assay buffer
# The plates are incubated at RT on a shaker for 1 hour, and then harvested (Tomtec Harvester 9600) onto GF/C filter plates using wash buffer (10 mM HEPES-KOH, pH 7.4). […] Plates are then counted using a Packard Top Count instrument, Plates are then read on the Packard Topcount with the 3H Scintillation program (1 minute/well).
# Ki (dissocation constant for the inhibition) values for the CRTh2 antagonists are reported. Ki values are determined using Sigma Plot™ software, using the Cheng-Prussoff equation. […]
# CRTh2 receptor [2] = target: T1, CRTh2 receptor; assay: CRTH2 cAMP functional assay: inhibition of PGD2-mediated attenuation of forskolin-induced cAMP accumulation in CHO.K1-CRTh2 cells; type: cell-based; conditions: 10 nM PGD2, 5 μM forskolin, cAMP Alphascreen
# Protocol: Ki (dissocation constant for the inhibition) values for the CRTh2 antagonists are reported. Ki values are determined using Sigma Plot™ software, using the Cheng-Prussoff equation. Ki=IC50/1+[S]/Kd, where S is the concentration of radioligand and Kd is the dissociation constant. CRTH2 cAMP Functional Assay Protocol
# This assay is conducted in CHO.K1-CRTh2 cells. cAMP is generated in the cell by stimulating cells with 5 μM forskolin, an adenylate cyclase activator. PGD2 is added to activate the CRTh2 receptor which results in the attenuation of the forskolin-induced cAMP accumulation. Potential CRTh2 antagonists are tested for their ability to inhibit the PGD2-mediated attenuation of the forskolin-induced cAMP accumulation in CHO.K1-CRTh2 cells.
# For each concentration value on the dose-response curve, test compounds are prepared in assay stimulation buffer (HBSS, 5 mM HEPES, 10 μM IBMX±0.1% human serum albumin) containing DMSO (3% vol/vol) and 5 μL/well is added to an assay plate (384-well white optiplate).
# CHO.K1-CRTh2 cultured in tissue culture flasks are washed with PBS and harvested with dissociation buffer. Cells are washed with PBS and resuspended in stimulation buffer to a concentration of 0.4×10^6/mL and added to the assay plate (10 μL/well).
# The assay plate is incubated at room temperature on a shaker for 15 minutes.
# A mix of agonist (10 nM Prostaglandin D2) and 5 μM forskolin is prepared in assay stimulation buffer and added to the assay plate (5 μL/well).
# In addition, a cAMP standard is serially diluted in assay stimulation buffer and added to separate empty wells on the assay plate (20 μL/well). The cAMP standard allows for the quantification of cAMP generated in CHO.K1-CRTH2 cells.
# The assay plate is incubated at room temperature on a shaker for 60 minutes.
# Cell lysis buffer (Lysis buffer: Milli-Q H2O, 5 mM HEPES, 0.3% Tween-20, 0.1% human serum albumin) is added to a bead mix (containing Alphascreen™ anti-cAMP acceptor beads 0.06 units/μL, Alphascreen™ streptavidin-coated donor beads 0.06 units/μL, biotinylated cAMP 0.06 units/μL, 10 μM IBMX) is prepared under darkened conditions 60 minutes prior to addition to the assay plate. The resulting lysis mix is added to all wells of the assay plate (40 μL/well).
# The assay plate is sealed with Topseal-S™ and incubated in the dark at room temperature on a shaker for 45 minutes. The plate is then counted using a Packard Fusion™ instrument.
# The resulting counts per minute are converted to nM cAMP by using the prepared cAMP standard curve. IC50 values (concentration of CRTh2 antagonist required to inhibit 50% of the PGD2-mediated attenuation of forskolin-induced cAMP accumulation in CHO.K1-CRTh2 cells) are then determined using Prism™ software.
Ki (CRTh2 receptor [1]),IC50 (CRTh2 receptor [2]),SMILES
40.3 nM,22.5 nM,"CC(Oc1ccc(Cl)cc1Cc1cc(Cl)ccc1OCC(=O)O)C(=O)N1CCCC1 (racemic) [Example 1, {4-Chloro-2-[5-chloro-2-(1-methyl-2-oxo-2-pyrrolidin-1-yl-ethoxy)-benzyl]-phenoxy}-acetic acid]"
60.2 nM,25 nM,"CC(Oc1ccccc1Cc1cc(Cl)ccc1OCC(=O)O)C(=O)N1CCCC1 (single isomer, unassigned) [8 (enantiomer 1), {4-Chloro-2-[2-((R/S)-1-methyl-2-oxo-2-pyrrolidin-1-yl-ethoxy)-benzyl]-phenoxy}-acetic acid]"
95 nM,22.5 nM,"CC(Oc1ccc(Cl)cc1Cc1cc(Cl)ccc1OCC(=O)O)C(=O)N1CCOCC1 (centres unmarked) [Example 3, {4-Chloro-2-[5-chloro-2-(1-methyl-2-morpholin-4-yl-2-oxo-ethoxy)-benzyl]-phenoxy}-acetic acid]"
82.4 nM,37.5 nM,"CC(Oc1ccccc1Cc1cc(Cl)ccc1OCC(=O)O)C(=O)N1CCCC1 (centres unmarked) [Example 7, {4-Chloro-2-[2-(1-methyl-2-oxo-2-pyrrolidin-1-yl-ethoxy)-benzyl]-phenoxy}acetic acid]"
